{
  "source": "patent US8846668B2",
  "about": "“Inhibitors of 11beta-hydroxysteroid dehydrogenase 1” (Vitae Pharmaceuticals, Inc., priority 2008, dated 2014)",
  "data": [
    {"target": "T1, 11β-HSD1 (human liver microsomes) (Homo sapiens, UniProt P28845)", "T1 construct": "detecting cortisol generated from cortisterone by human liver microsomes; from tissue; host or cells: human liver microsomes", "T1 sequence (P28845 whole entry)": "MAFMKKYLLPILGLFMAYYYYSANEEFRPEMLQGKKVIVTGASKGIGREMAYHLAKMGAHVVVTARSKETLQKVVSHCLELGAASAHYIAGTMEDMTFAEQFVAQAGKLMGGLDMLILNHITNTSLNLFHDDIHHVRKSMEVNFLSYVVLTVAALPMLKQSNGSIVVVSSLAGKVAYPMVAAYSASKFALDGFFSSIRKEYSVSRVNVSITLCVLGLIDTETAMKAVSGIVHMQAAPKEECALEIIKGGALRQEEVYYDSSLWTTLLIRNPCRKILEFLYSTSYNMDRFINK", "assay": "In vitro inhibition of 11β-HSD1, HTRF detection of cortisol generated by human liver microsomes", "assay_type": "biochemical", "settings": "100 nM inhibitor, 100% indicates no inhibition, zero or below zero indicates complete inhibition, 1 hour at 37° C., read-out: Average % control inhibition at 100 nM", "units": {"remaining activity at 0.1 µM": "%"}, "description": "Briefly, compounds were incubated for 1 hour at 37° C. in Tris buffer (20 mM tris, 5 mM EDTA, pH 6.0) containing NADPH (200 μM) and cortisone (80 nM). Cortisol generated in the reaction is then detected with a competitive immunoassay, involving two HTRF conjugates: cortisol linked to XL665 and anti-cortisol antibody labeled with Europium cryptate. The incubation period for detection reaction was typically 2 hours. […] The ratio of the two emission signals is then calculated (Em665*10000/Em615). […] Each assay also contained a calibration curve with cortisol to transform the fluorescent data into cortisol concentrations. Percent inhibition of each compound was determined relative to the carbenoxolone signal.", "values": [
      {"smiles": "C[C@@H](c1ccc(C2CCN(C(=O)[C@@H]3CCCN3C)CC2)cc1)N1CC[C@](CC(C)(C)O)(c2ccccc2)OC1=O", "note": "[Example 26, (S)-6-(2-Hydroxy-2-methyl-propyl)-3-((S)-1-{4-[1-((S)-1-methyl-pyrrolidine-2-carbonyl)-piperidin-4-yl]-phenyl}-ethyl)-6-phenyl-[1,3]oxazinan-2-one]", "remaining activity at 0.1 µM": 80},
      {"smiles": "CCNC(=O)c1ccc(-c2ccc([C@H](C)N3CC[C@](CC(C)(C)O)(c4ccccc4)OC3=O)cc2)cn1", "note": "[Example 15, 5-(4-{(S)-1-[(S)-6-(2-Hydroxy-2-methyl-propyl)-2-oxo-6-phenyl-[1,3]oxazinan-3-yl]-ethyl}-phenyl)-pyridine-2-carboxylic acid ethylamide]", "remaining activity at 0.1 µM": -34},
      {"smiles": "CNC(=O)c1ccc(-c2ccc([C@H](C)N3CC[C@](CC(C)(C)O)(c4ccccc4)OC3=O)cc2)cn1", "note": "[Example 16, 5-(4-{(S)-1-[(S)-6-(2-Hydroxy-2-methyl-propyl)-2-oxo-6-phenyl-[1,3]oxazinan-3-yl]-ethyl}-phenyl)-pyridine-2-carboxylic acid methylamide]", "remaining activity at 0.1 µM": -24},
      {"smiles": "C[C@@H](c1ccc(C2CCN(C(=O)[C@@H]3CCCO3)CC2)cc1)N1CC[C@](CC(C)(C)O)(c2ccccc2)OC1=O", "note": "[Example 23, (S)-6-(2-Hydroxy-2-methyl-propyl)-6-phenyl-3-((S)-1-{4-[1-((S)-tetrahydro-furan-2-carbonyl)-piperidin-4-yl]-phenyl}-ethyl)-[1,3]oxazinan-2-one]", "remaining activity at 0.1 µM": 44},
      {"smiles": "C[C@@H](c1ccc(C2CCN(C(=O)[C@H]3CCCN3C)CC2)cc1)N1CC[C@](CC(C)(C)O)(c2ccccc2)OC1=O", "note": "[Example 27, (S)-6-(2-Hydroxy-2-methyl-propyl)-3-((S)-1-{4-[1-((R)-1-methyl-pyrrolidine-2-carbonyl)-piperidin-4-yl]-phenyl}-ethyl)-6-phenyl-[1,3]oxazinan-2-one]", "remaining activity at 0.1 µM": 86},
      {"smiles": "C[C@@H](c1ccc(C2CCN(C(=O)[C@H]3CCCO3)CC2)cc1)N1CC[C@](CC(C)(C)O)(c2ccccc2)OC1=O", "note": "[Example 24, (S)-6-(2-Hydroxy-2-methyl-propyl)-6-phenyl-3-((S)-1-{4-[1-((R)-tetrahydro-furan-2-carbonyl)-piperidin-4-yl]-phenyl}-ethyl)-[1,3]oxazinan-2-one]", "remaining activity at 0.1 µM": 53},
      {"smiles": "C[C@@H](c1ccc(C2CCNCC2)cc1)N1CC[C@](CC(C)(C)O)(c2ccccc2)OC1=O", "note": "[Example 18, (S)-6-(2-Hydroxy-2-methyl-propyl)-6-phenyl-3-[(S)-1-(4-piperidin-4-yl-phenyl)-ethyl]-[1,3]oxazinan-2-one]", "remaining activity at 0.1 µM": 93},
      {"smiles": "C[C@@H](c1ccc(C2CCN(C)CC2)cc1)N1CC[C@](CC(C)(C)O)(c2ccccc2)OC1=O", "note": "[Example 21, (S)-6-(2-Hydroxy-2-methyl-propyl)-3-{(5)-1-[4-(1-methyl-piperidin-4-yl)-phenyl]-ethyl}-6-phenyl-[1,3]oxazinan-2-one]", "remaining activity at 0.1 µM": 97},
      {"smiles": "C[C@@H](c1ccc(C2CCN(C(=O)C(C)(C)O)CC2)cc1)N1CC[C@](CC(C)(C)O)(c2ccccc2)OC1=O", "note": "[Example 25, (S)-6-(2-Hydroxy-2-methyl-propyl)-6-phenyl-3-((S)-1-{4-[1-(2-hydroxy-2-propyl-carbonyl)-piperidin-4-yl]-phenyl}-ethyl)-[1,3]oxazinan-2-one]", "remaining activity at 0.1 µM": 71},
      {"smiles": "CNC(=O)N1CCC(c2ccc([C@H](C)N3CC[C@](CC(C)(C)O)(c4ccccc4)OC3=O)cc2)CC1", "note": "[Example 35, 4-(4-{(S)-1-[(S)-6-(2-Hydroxy-2-methyl-propyl)-2-oxo-6-phenyl-[1,3]oxazinan-3-yl]-ethyl}-phenyl)-piperidine-1-carboxylic acid methylamide]", "remaining activity at 0.1 µM": 1},
      {"smiles": "C[C@@H](c1ccc(C2CCN(S(C)(=O)=O)CC2)cc1)N1CC[C@](CC(C)(C)O)(c2ccccc2)OC1=O", "note": "[Example 22, (S)-6-(2-Hydroxy-2-methyl-propyl)-3-{(S)-1-[4-(1-methanesulfonyl-piperidin-4-yl)-phenyl]-ethyl}-6-phenyl-[1,3]oxazinan-2-one]", "remaining activity at 0.1 µM": 17},
      {"smiles": "C[C@@H](c1ccc(C2CCN(C(=O)N(C)C)CC2)cc1)N1CC[C@](CC(C)(C)O)(c2ccccc2)OC1=O", "note": "[Example 36, 4-((S)-4-{1-[(S)-6-(2-Hydroxy-2-methyl-propyl)-2-oxo-6-phenyl-[1,3]oxazinan-3-yl]-ethyl}-phenyl)-piperidine-1-carboxylic acid dimethylamide]", "remaining activity at 0.1 µM": 31},
      {"smiles": "C[C@@H](c1ccc(-c2ccc(C(=O)N(C)C)nc2)cc1)N1CC[C@](CC(C)(C)O)(c2ccccc2)OC1=O", "note": "[Example 17, (4-{(S)-1-[(S)-6-(2-Hydroxy-2-methyl-propyl)-2-oxo-6-phenyl-[1,3]oxazinan-3-yl]-ethyl}-phenyl)-pyridine-2-carboxylic acid dimethylamide]", "remaining activity at 0.1 µM": -10}
    ]},
    {"target": "T1, 11β-HSD1 (human liver microsomes)", "assay": "In vitro inhibition of 11β-HSD1, HTRF detection of cortisol generated by human liver microsomes", "assay_type": "biochemical", "settings": "1 μM inhibitor (footnote *), 100% indicates no inhibition, zero or below zero indicates complete inhibition, read-out: Average % control inhibition (1 μM inhibitor concentration)", "units": {"remaining activity at 1 µM": "%"}, "values": [
      {"smiles": "C[C@@H](c1ccc(C2CCC(=O)N(C)C2)cc1)N1CC[C@](CC(C)(C)O)(c2ccccc2)OC1=O", "note": "(stereo partly drawn) [Example 34, (S)-6-(2-Hydroxy-2-methyl-propyl)-3-{(S)-1-[4-(1-methyl-6-oxo-piperidin-3-yl)-phenyl]-ethyl}-6-phenyl-[1,3]oxazinan-2-one]", "remaining activity at 1 µM": -17},
      {"smiles": "C[C@@H](c1ccc(C2CCN(C)C(=O)C2)cc1)N1CC[C@](CC(C)(C)O)(c2ccccc2)OC1=O", "note": "(stereo partly drawn) [Example 33, (S)-6-(2-Hydroxy-2-methyl-propyl)-3-{(S)-1-[4-(1-methyl-2-oxo-piperidin-4-yl)-phenyl]-ethyl}-6-phenyl-[1,3]oxazinan-2-one]", "remaining activity at 1 µM": -27}
    ]},
    {"target": "T2, human 11β-HSD1 (microsomes isolated from CHO cells overexpressing human 11β-HSD1) (Homo sapiens, UniProt P28845)", "T2 construct": "expressed in transfected cells; host or cells: CHO cells (microsomes)", "T2 sequence (P28845 whole entry)": "as above", "assay": "Inhibition of a microsomal preparation of 11β-HSD1, scintillation proximity assay", "assay_type": "biochemical", "settings": "microsomes from CHO cells overexpressing human 11β-HSD1; [3H]cortisone, SPA, 90 minutes at rt", "units": {"IC50": "nM"}, "description": "All reactions were carried out at rt in 96 well clear flexible PET Microbeta plates (PerkinElmer). […] After a 10 minute pre-incubation, 50 μL of enzyme solution containing microsomes isolated from CHO cells overexpressing human 11β-HSD1 (10-20 μg/ml of total protein) was added, and the plates were incubated for 90 minutes at rt. […] The plates were shaken for 120 minutes at rt, and the SPA signal corresponding to [^3H]cortisol was measured on a Microbeta plate reader.", "values": [
      {"smiles": "CC(C)C1(CC(C)(C)O)CCN([C@@H](C)c2ccc(-c3ccc4c(c3)ncn4C)cc2)C(=O)O1", "note": "(stereo partly drawn) [Example 38, 6-(2-hydroxy-2-methylpropyl)-6-isopropyl-3-{(S)-1-[4-(1-methyl-1H-benzo[d]imidazol-5-yl)phenyl]ethyl}-1,3-oxazinan-2-one]", "IC50": 7.7},
      {"smiles": "Cc1nc2cc(-c3ccc([C@H](C)N4CCC(CC(C)(C)O)(C(C)C)OC4=O)cc3)ccc2n1C", "note": "(single isomer, unassigned) [Example 37]", "IC50": 6.9}
    ]}
  ]
}
